In US11136337B2, “Pyrazole- and indazole-substituted oxadiazolopyridine derivatives for use as ghrelin O-acyl transferase (GOAT) inhibitors” (Boehringer Ingelheim International GmbH, priority 2018, dated 2021):
pIC50: −log10 of the molar value.

Molecular target: human GOAT (Homo sapiens (Human), UniProt Q96T53)
Assay: Determination of hGOAT activity in HEK293 cells after incubation with test compound (acyl-ghrelin ELISA)
Assay type: cell-based
Settings: HEK293 cells stably expressing human GOAT and preproghrelin; 5 h incubation with octanoate-BSA; acyl-ghrelin in medium by ELISA
Method: Determination of hGOAT Activity in HEK293 Cells after Incubation with Test Compound
HEK293 cells stably transfected with two expression vectors, one coding for preproghrelin cDNA and a second for the expression of human GOAT cDNA are used as a cellular model. After feeding the cells with octanoic acid for 5 hours, acyl-ghrelin is measured in cell culture medium by an ELISA procedure.
Cellline: Hek293 hGOAT/PPGhrl Clone #1B8Sodium octanoate, Sigma, Cat.-No. C5038
BD Poly-D-Lysin 384-well Plates, black-clear polystyrene BD Bioscience Cat.-No. […] ELISA human acylated Ghrelin Kit purchased from Bertin Pharman (detailed composition of buffers e.g. wash-puffer, ELISA buffer not known)
Cells are plated with a density of 5000 cells/well in 384-well poly-D-lysin plates and incubated for 1 day at 37° C., 5% CO2 in DMEM medium, 10% FCS, 1×NEAA, Puromycin (0.5 μg/ml) and G418 (1 mg/ml). Then the medium is changed to a identical medium without FCS and containing Octanoate-BSA (final concentration 100 μM each) and compound in DMSO (final DMSO concentration 0.3%). After incubation for 5 hours acylghrelin in the medium is measured by ELISA.
The medium sample is diluted 1:25 in Elisa buffer, a 25 μl aliquot is transferred to a 384-well ELISA plate previously washed 4 times with 100 μL wash buffer, and 25 μl tracer-solution is added. After incubation overnight (˜20 h) at 4° C. temperature the plate is washed 4 times with 100 μl wash-buffer per well. Finally 50 μl Ellman's reagent is added to each well and the plate is incubated in the dark for 20 minutes. The absorbance is measured at 405 nm in an Envision multilabel reader and the amount of acylated ghrelin is calculated according to a acylated ghrelin standard curve provided in the same plate.
The analysis of the data is performed by calculation of the percentage of acyl-ghrelin produced in the presence of test compound compared to the amount of acyl-ghrelin produced in the vehicle control samples. An inhibitor of the GOAT enzyme will give values between 100% CTL (no inhibition) and 0% CTL (complete inhibition).
IC50 values are calculated with Assay Explorer or other suited software based on curve fitting of results of 8 different compound concentrations.

human GOAT, sequence (Q96T53 whole entry): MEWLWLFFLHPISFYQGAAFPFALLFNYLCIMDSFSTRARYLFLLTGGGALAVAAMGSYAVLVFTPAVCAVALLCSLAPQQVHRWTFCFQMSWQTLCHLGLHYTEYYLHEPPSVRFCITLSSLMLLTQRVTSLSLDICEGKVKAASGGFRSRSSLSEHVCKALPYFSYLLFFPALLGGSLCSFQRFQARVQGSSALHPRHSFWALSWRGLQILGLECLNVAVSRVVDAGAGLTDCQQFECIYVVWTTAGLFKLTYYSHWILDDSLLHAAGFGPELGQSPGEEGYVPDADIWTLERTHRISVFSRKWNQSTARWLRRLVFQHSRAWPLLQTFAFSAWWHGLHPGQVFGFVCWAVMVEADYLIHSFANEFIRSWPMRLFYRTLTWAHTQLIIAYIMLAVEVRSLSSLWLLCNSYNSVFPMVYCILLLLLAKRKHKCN

Compound	pIC50
Cc1nc2nonc2c(N)c1Cn1cc(-c2ccc(C#N)cc2)cn1 [Example 1.2]	8.80
Cc1nc2nonc2c(N)c1Cn1cc2cc(C#N)ccc2n1 [Example 1.9]	8.36
Cc1nc2nonc2c(N)c1Cn1ccc(C=O)n1 [Example 2.4, 1-({7-amino-5-methyl-[1,2,5]oxadiazolo[3,4-b]pyridin-6-yl}methyl)-1H-pyrazole-3-carbaldehyde]	8.77
Cc1nc2nonc2c(N)c1Cn1cc(-c2ccccc2F)cn1 [Example 2.2]	9.64
Cc1nc2nonc2c(N)c1Cn1ccc(-c2ccccc2F)n1 [Example 2.1, 6-{[3-(2-Fluorophenyl)-1H-pyrazol-1-yl]methyl}-5-methyl-[1,2,5]oxadiazolo[3,4-b]pyridin-7-amine]	10.46
Cc1nc2nonc2c(N)c1Cn1cc(C(F)(F)F)cn1 [Example 1.8]	8.85
COC(=O)c1ccn(Cc2c(C)nc3nonc3c2N)n1 [Example 1.6, Methyl 1-({7-amino-5-methyl-[1,2,5]oxadiazolo[3,4-b]pyridin-6-yl}methyl)-1H-pyrazole-3-carboxylate]	9.02
Cc1nc2nonc2c(N)c1Cn1cc(NC(=O)OC(C)(C)C)cn1 [Example 1.5]	8.48
Cc1nc2nonc2c(N)c1Cn1nccc1-c1ccccc1F [Example 2.3]	9.55
Cc1nc2nonc2c(N)c1Cn1ccc(N2CCCS2(=O)=O)n1 [Example 2.5]	9.74
Cc1nc2nonc2c(N)c1Cn1cc(-c2c(C)noc2C)cn1 [Example 1.3]	8.66
Cc1nc2nonc2c(N)c1Cn1cc(C(C)(C)C)cn1 [Example 1.4]	9.29
CCOC(=O)c1cnn(Cc2c(C)nc3nonc3c2N)c1 [Example 1.1, Ethyl 1-({7-amino-5-methyl-[1,2,5]oxadiazolo[3,4-b]pyridin-6-yl}methyl)-1H-pyrazole-4-carboxylate]	8.77
Cc1nc2nonc2c(N)c1Cn1cc(Br)c(C(F)(F)F)n1 [Example 1.7, 6-{[4-Bromo-3-(trifluoromethyl)-1H-pyrazol-1-yl]methyl}-5-methyl-[1,2,5]oxadiazolo[3,4-b]pyridin-7-amine]	9.22
Cc1nc2nonc2c(N)c1Cn1cc(Br)cn1 [Example 2.6]	8.36

Continued, values first:

pIC50	Compound
8.92	Cc1nc2nonc2c(N)c1Cn1cc(-c2ccc(F)nc2)c(C(F)(F)F)n1 [Example 3.2]
10.55	Cc1nc2nonc2c(N)c1Cn1ccc(-c2cccc(C(F)(F)F)n2)n1 [Example 5.1, 5-Methyl-6-({3-[6-(trifluoromethyl)pyridin-2-yl]-1H-pyrazol-1-yl}methyl)-[1,2,5]oxadiazolo[3,4-b]pyridin-7-amine]
10.12	Cc1nc2nonc2c(N)c1Cn1ccc(-c2ccc(S(C)(=O)=O)cc2F)n1 [Example 4.12]
8.13	Cc1nc2nonc2c(N)c1Cn1ccc(CN2CCC(F)(F)CC2)n1 [Example 9.1, 6-({3-[(4,4-Difluoropiperidin-1-yl)methyl]-1H-pyrazol-1-yl}methyl)-5-methyl-[1,2,5]oxadiazolo [3,4-b]pyridin-7-amine]
9.92	Cc1nc2nonc2c(N)c1Cn1ccc(-c2cncs2)n1 [Example 4.3]
8.46	Cc1nc2nonc2c(N)c1Cn1ccc(C(=O)N2CCC(F)(F)CC2)n1 [Example 7.2]
9.70	Cc1nc2nonc2c(N)c1Cn1ccc(-c2ccnn2C)n1 [Example 4.14]
8.42	Cc1nc2nonc2c(N)c1Cn1ccc(-c2cnoc2)n1 [Example 4.5]
8.44	Cc1nc2nonc2c(N)c1Cn1cc(-c2cnn(C)c2)cn1 [Example 4.16]
10.47	Cc1nc2nonc2c(N)c1Cn1ccc(-c2cccnc2F)n1 [Example 4.1, 6-{[3-(2-Fluoropyridin-3-yl)-1H-pyrazol-1-yl]methyl}-5-methyl-[1,2,5]oxadiazolo[3,4-b]pyridin-7-amine]
9.77	Cc1nc2nonc2c(N)c1Cn1ccc(-c2ccco2)n1 [Example 4.6]
9.72	Cc1nc2nonc2c(N)c1Cn1ccc(-c2cn(C)c3ncccc23)n1 [Example 4.11]
9.43	Cc1nc2nonc2c(N)c1Cn1ccc(-c2cncn2C)n1 [Example 4.7]
9.82	Cc1nc2nonc2c(N)c1Cn1ccc(-c2cnn3cccnc23)n1 [Example 4.10]
9.08	Cc1nc2nonc2c(N)c1Cn1ccc(C(=O)N2CCC(F)(F)C2)n1 [Example 7.1, 6-{[3-(3,3-Difluoropyrrolidine-1-carbonyl)-1H-pyrazol-1-yl]methyl}-5-methyl-[1,2,5]oxadiazolo[3,4-b]pyridin-7-amine]
10.40	Cc1nc2nonc2c(N)c1Cn1ccc(-c2nn(C)c3ccccc23)n1 [Example 4.9]
8.25	Cc1nc2nonc2c(N)c1Cn1cc(-c2ccn[nH]2)cn1 [Example 4.15]
8.29	Cc1nc2nonc2c(N)c1Cn1cc(-c2cnn(C)c2)c(C(F)(F)F)n1 [Example 3.4]
8.29	Cc1nc2nonc2c(N)c1Cn1ccc(C(=O)N2CCC(O)(C(F)(F)F)C2)n1 (stereo not drawn) [Example 7.3]
8.49	Cc1nc2nonc2c(N)c1Cn1ccc(NC(=O)C(NC(=O)OCc2ccccc2)C(C)C)n1 (stereo not drawn) [Example 8.1, Benzyl N-(1-{[1-({7-amino-5-methyl-[1,2,5]oxadiazolo[3,4-b]pyridin-6-yl}methyl)-1H-pyrazol-3-yl]carbamoyl}-2-methylpropyl)carbamate]
8.48	Cc1nc2nonc2c(N)c1Cn1cc(-c2cccc(S(C)(=O)=O)c2)c(C(F)(F)F)n1 [Example 3.1, 6-{[4-(3-Methanesulfonylphenyl)-3-(trifluoromethyl)-1H-pyrazol-1-yl]methyl}-5-methyl-[1,2,5]oxadiazolo[3,4-b]pyridin-7-amine]
9.16	Cc1nc2nonc2c(N)c1Cn1cc2ccccc2n1 [Example 6.1, 6-[(2H-Indazol-2-yl)methyl]-5-methyl-[1,2,5]oxadiazolo[3,4-b]pyridin-7-amine]
10.02	Cc1nc2nonc2c(N)c1Cn1ccc(-c2cccc(S(C)(=O)=O)c2)n1 [Example 4.8]
8.59	Cc1nc2nonc2c(N)c1Cn1cc(-c2ccnn2C)c(C(F)(F)F)n1 [Example 3.3]
9.42	Cc1nc2nonc2c(N)c1Cn1ccc(-c2ccc(C#N)c(F)c2)n1 [Example 4.13]
9.54	Cc1nc2nonc2c(N)c1Cn1ccc(-c2c(C)noc2C)n1 [Example 4.4]
9.96	Cc1nc2nonc2c(N)c1Cn1ccc(-c2c[nH]nc2C(F)(F)F)n1 [Example 4.2]
